Test results: US20080299234A1, “Medication Comprising Plant Extracts as a Lipase Inhibitor” (priority 2005, published 2008)

Experiments:
[1] = molecular target: T1, pancreatic lipase (Homo sapiens, UniProt P16233); conditions: application of Orlistat; cited from earlier work
T1 sequence (P16233 17-465): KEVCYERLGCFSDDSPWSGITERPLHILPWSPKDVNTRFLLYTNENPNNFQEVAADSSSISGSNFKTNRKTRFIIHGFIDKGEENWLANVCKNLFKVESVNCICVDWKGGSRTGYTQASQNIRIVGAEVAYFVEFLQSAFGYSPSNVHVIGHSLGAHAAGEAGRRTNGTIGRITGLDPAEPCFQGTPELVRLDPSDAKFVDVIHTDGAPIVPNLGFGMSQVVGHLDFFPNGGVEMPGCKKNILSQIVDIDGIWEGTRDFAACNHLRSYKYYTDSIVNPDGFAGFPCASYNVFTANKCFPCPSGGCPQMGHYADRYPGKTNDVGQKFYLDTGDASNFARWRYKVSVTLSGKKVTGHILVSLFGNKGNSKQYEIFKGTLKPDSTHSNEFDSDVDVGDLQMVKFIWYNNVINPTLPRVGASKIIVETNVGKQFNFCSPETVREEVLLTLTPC

[2] = tested on: postprandial triglyceride values in the plasma of rats; assay: lipid stress test in rats with Triton WR-1339 (postprandial rise in plasma triglyceride values); type: in vivo
Protocol: For further examination and verification of the results determined in vitro, the triglyceride-reducing effect was tested in an animal experiment.
To this end a lipid stress test was carried out in rats with Triton WR-1339 to inhibit the triglyceride elimination from the blood and the postprandial rise in plasma triglyceride values over four hours The following test substances were used:
Orlistat as positive control.
As result, the rise in postprandial triglyceride values in the plasma of rats after administration of the test substances was recorded. […] They include linseed, sunflower, marigold and propolis.

[3] = tested on: triglyceride; conditions: Tsujita et al. 1996; Kagawa et al. 1996, 1998; cited from earlier work

| Compound | undesired side effects [1] | triglyceride values as a function of the time after food intake (in words) ([2]; rat plasma after lipid stress test, experimental period of four hours (FIG. 2)) | triglyceride-reducing (literature) [3] | triglyceride-reducing effect (in words) ([2]; rats, lipid stress test with Triton WR-1339, postprandial plasma triglyceride rise (FIG. 1)) |
| --- | --- | --- | --- | --- |
| CCCCCCCCCCC[C@@H](C[C@@H]1OC(=O)[C@H]1CCCCCC)OC(=O)[C@H](CC(C)C)NC=O [Orlistat, Tetrahydrolipstatin] | oily or fatty stools | the lowest | – | – |
| VVYP (UniProt P02070 32-35, looked up, fragment) [fragment 32-35 of the β-chain of bovine haemoglobin] | – | – | triglyceride-reducing | – |
| protamine | – | – | triglyceride reducing | no triglyceride-reducing effect was found |
